“Also recorded” adds a separate entry of the source.
How the values were obtained:
[1] = test system: SK-MEL-2 human melanoma xenograft; experiment: SK-MEL-2 human melanoma xenograft in athymic mice; assay type: in vivo; settings: observation period >200 days
[2] = Pharmacokinetics of CR011-vcMMAE after intravenous administration (sandwich ELISA of antibody in serum); assay type: in vivo, athymic mice; settings: for A (pre-exponential constant for alpha phase) / AUC (total area under the curve from 0 to infinity) / Alpha (exponential rate constant for alpha phase) / Alpha-Half Life / B (pre-exponential constant for beta phase) / Beta (exponential rate constant for beta phase) / Beta-Half Life / Cl (total or systemic clearance) / MRT (mean residence time) / Volume (volume of central compartment) / Vss (steady-state volume of distribution): athymic mice, i.v.
Protocol: The concentration-time pattern was bi-phasic. […] Nevertheless, the compound disappeared very slowly from the peripheral blood (T1/2β=10.3 days) with serum concentrations of […] and 10 μg/mL remaining in the blood for 6 weeks after dosing.

[3] = test system: SK-MEL-2 human melanoma xenograft; experiment: SK-MEL-2 human melanoma xenograft in athymic mice; assay type: in vivo
Protocol: Five- to 6-week old athymic mice (CD-1 nu/nu females), used for human tumor xenografts, were obtained from Harlan Laboratories (Indianapolis, Ind.). Animals were housed in specific pathogen-free conditions, according to the guidelines of the Association for Assessment and Accreditation of Laboratory Animal Care International (AAALAC International). Test animals were provided pelleted food and water ad libitum and kept in a room with conditioned ventilation (HVAC), temperature (22°±2° C.), relative humidity (55%±15%), and photoperiod (12 hr). All studies were carried out with approved institutional animal care and use protocols.
The tumor inhibitory activity of the CR011-MMAE immunoconjugate was measured in an anti-tumor xenograft model using athymic mice, according to published methods (see Geran et al., Cancer Chemother. Rep. 3:1-104 (1972)). […] When tumors became established (10-20 days), the animals were pair-matched into groups (n=6 mice/group), and treatment was administered by intravenous injection (tail vein).
The SK-MEL-2 human melanoma (ATCC #HTB-68) was derived from a metastatic site (skin of thigh) of a person with malignant melanoma, and the SK− MEL-5 human melanoma (ATCC #HTB-70) was derived from a metastatic site (axillary lymph node) of a person with malignant melanoma (see Fogh et al., J. Natl. Cancer Inst. 59: 221-226 (1977)). Both cell lines were obtained from the American Type Culture Collection.
The effects of treatment were monitored by repetitive tumor measurements across 2 diameters with Vernier calipers; tumor size (in mg) was calculated using a standard formula, (W^2×L)/2, assuming a specific gravity of 1.0. Tumor size and body weights were assessed twice weekly. Mice were examined daily, however, and moribund animals were humanely euthanized if clinical indications of excessive pain or distress were noted (i.e., prostration, hunched posture, paralysis/paresis, distended abdomen, ulcerations, abscesses, seizures, and/or hemorrhages) Animals with tumors exceeding 2,000 mg were removed from the study and euthanized humanely.
No apparent or statistically significant anti-tumor effects were observed. […] In preliminary studies, tumor regression was complete and was not followed by regrowth of the tumor despite lengthy observation periods (up to 200 days).

TK-10 control cells = experiment: Cell cycle analysis (BrdU / propidium iodide flow cytometry); assay type: cell-based, human
Protocol: (§1) Briefly, cells were pulsed at the indicated times with 30 μM of bromodeoxyuridine (BrdU, Sigma) for 30 min, harvested, fixed and permeabilized in methanol. Nascent DNA synthesis was detected by anti-bromodeoxyuridine-FITC (BD Biosciences, San Jose, Calif.) staining. Total DNA content was detected using propidium iodide (PI, Sigma). For apoptosis analysis, cells were treated as above and labeled with Annexin V-FITC followed by propidium iodide exclusion using the Annexin V-FITC Apoptosis Detection kit I (BD PharMingen, San Diego, Calif.) according to the manufacturer's protocols. Flow cytometry (as described in the previous Example) was used to assay both cell cycle and apoptosis studies.
(§2) DNA synthesis and cell cycle progression were determined by flow cytometry (Table 52).

SK-Mel-2 cells = experiment: as above; assay type: cell-based, human
Protocol: as §1, §2

TK10 = experiment: Anti-GPNMB antibody mediated indirect cell killing (saporin secondary conjugate, colony count); assay type: cell-based; settings: antibody at 50 ng/mL with goat anti-human IgG-saporin 100 ng/well
Protocol: UACC-62, a GPNMB antigen expressing cell line, and TK10, a non-expressing cell line were plated onto flat bottom 96-well tissue culture plates (Becton Dickinson, Franklin Lakes, N.J., USA) at a density of 3000 cells per well. Once the cells reached ˜25% confluency, 100 ng/well of secondary antibody-toxin conjugate (goat anti-human IgG-saporin; Advanced Targeting Systems, San Diego, USA, HUM-ZAP; cat #IT-22) was added. […] An anti-EGFR monoclonal antibody (MS-269-PABX, NeoMarkers, Fremont, Calif., USA) was used as a positive primary antibody control. Chemotherapy reagent 5-FU at 600 uM was used as a positive reagent control. On day 5, the cells were trypsinized, transferred to 6-well tissue culture plates and incubated at 37° C. Plates were examined daily and between 8-10 days, all plates were Giemsa stained and colonies were counted.

Melanoma cell lines = experiment: Clonogenic assay with 1.15.1-AE, melanoma panel; assay type: cell-based, human
Protocol: Melanoma cell lines were plated onto flat bottom 96-well tissue culture plates (Becton Dickinson, Franklin Lakes, N.J., USA). On day 2 or when cells reach ˜25% confluency, various concentrations of unconjugated and Auristatin E-conjugated 1.15.1 were added to cells. MAb 2.6.2-AE was also used as a conjugated isotype control in this study. On day 5, the cells were trypsinized, transferred to 6-well tissue culture plates and incubated at 37° C. Plates were examined daily. On days 8-10, all plates were Giemsa stained and colonies on the plates were counted.

For “CR011-vcMMAE: CR011 conjugated to monomethyl auristatin E through a protease cleavable valine-citrulline linker; approx. 4 drugs per antibody”, the “re-growth of completely regressed tumors” value [1] was “did not re-grow”, the T1/2β ([2]; 1 or 10 mg/kg intravenously) was 10.3 days and the “A (pre-exponential constant for alpha phase)” value ([2]; 1 mg/kg) was 8.97 µg/mL. For the same substance, the “AUC (total area under the curve from 0 to infinity)” value ([2]; 1 mg/kg) was 3712 µg·h/mL, the “Alpha (exponential rate constant for alpha phase)” value ([2]; 1 mg/kg) was 0.179 h⁻¹ and the “Alpha-Half Life” value ([2]; 1 mg/kg) was 0.162 days. The “B (pre-exponential constant for beta phase)” value ([2]; 1 mg/kg) was 9.82 µg/mL, the “Beta (exponential rate constant for beta phase)” value ([2]; 1 mg/kg) was 0.00269 h⁻¹ and the “Beta-Half Life” value ([2]; 1 mg/kg) was 10.8 days. The “Cl (total or systemic clearance)” value ([2]; 1 mg/kg) was 6.46 mL/day/kg, the “MRT (mean residence time)” value ([2]; 1 mg/kg) was 15.3 days and the “Volume (volume of central compartment)” value ([2]; 1 mg/kg) was 0.0532 L/kg. For the same substance, the “Vss (steady-state volume of distribution)” value ([2]; 1 mg/kg) was 0.099 L/kg, the “A (pre-exponential constant for alpha phase)” value ([2]; 10 mg/kg) was 74.6 µg/mL and the “AUC (total area under the curve from 0 to infinity)” value ([2]; 10 mg/kg) was 41210 µg·h/mL. For the same substance, the “Alpha (exponential rate constant for alpha phase)” value ([2]; 10 mg/kg) was 0.0812 h⁻¹, the “Alpha-Half Life” value ([2]; 10 mg/kg) was 0.3555 days and the “B (pre-exponential constant for beta phase)” value ([2]; 10 mg/kg) was 113 µg/mL. For the same substance, the “Beta (exponential rate constant for beta phase)” value ([2]; 10 mg/kg) was 0.00281 h⁻¹, the “Beta-Half Life” value ([2]; 10 mg/kg) was 10.3 days and the “Cl (total or systemic clearance)” value ([2]; 10 mg/kg) was 5.83 mL/day/kg. The “MRT (mean residence time)” value ([2]; 10 mg/kg) was 14.5 days, the “Volume (volume of central compartment)” value ([2]; 10 mg/kg) was 0.0532 L/kg and the “Vss (steady-state volume of distribution)” value ([2]; 10 mg/kg) was 0.0845 L/kg. The “volume of distribution at steady state (Vss)” value ([2]; in words) was “very low”, the tumor size reached ([3]; 1 mg/kg single bolus dose, day 58) was ≥ 2,000 mg and the “tumor response (in words)” value ([3]; 10 mg/kg single bolus dose) was “complete regressions”. For the same substance, the “earliest significant treatment effects, time after treatment commenced” value ([3]; CR011-vcMMAE i.v. q4d×4, P≦0.014) was 4 days, the “anti-tumor effect (in words)” value ([3]; i.v., CR011-vcMMAE 20, 10, 5 or 2.5 mg/kg q4d×4, vinblastine […] q4d×4) was “tumors rapidly diminished in size for the majority of the test animals” and the “treatment effects on gross examination” value ([3]; mouse, in vivo) was “no abnormal treatment effects”. The “effects of treatment on body weight or weight gain” value ([3]; twice weekly body weight determinations) was “no observable or statistically significant effects”, the “effect on cycling of GPNMB-negative cells” value (TK-10 control cells; 1000 ng/mL) was “did not affect the cycling” and the “% G1” value (TK-10 control cells; TK-10, 24 hour, 100 ng/mL) was 51.1%. The “% S-phase” value (TK-10 control cells; TK-10, 24 hour, 100 ng/mL) was 35.1%, the “% Sub-G1” value (TK-10 control cells; TK-10, 24 hour, 100 ng/mL) was 0.7% and the “% G1” value (TK-10 control cells; TK-10, 24 hour, 1000 ng/mL) was 52.6%. For the same substance, the “% S-phase” value (TK-10 control cells; TK-10, 24 hour, 1000 ng/mL) was 34.2%, the “% Sub-G1” value (TK-10 control cells; TK-10, 24 hour, 1000 ng/mL) was 0.8% and the “decreased percentage of cells in G1 and S-phase vs untreated cells” value (SK-Mel-2 cells; 1000 ng/mL, 24 hrs) was 10%. The “reduced percentage of cells in G1 and S-phase” value (SK-Mel-2 cells; 1000 ng/mL, 48 hr) was 11%, the “% G1” value (SK-Mel-2 cells; SK-Mel-2, 24 hour, 100 ng/mL) was 56.0% and the “% S-phase” value (SK-Mel-2 cells; SK-Mel-2, 24 hour, 100 ng/mL) was 26.9%. The “% Sub-G1” value (SK-Mel-2 cells; SK-Mel-2, 24 hour, 100 ng/mL) was 0.2%, the “% G1” value (SK-Mel-2 cells; SK-Mel-2, 24 hour, 1000 ng/mL) was 43.7% and the “% S-phase” value (SK-Mel-2 cells; SK-Mel-2, 24 hour, 1000 ng/mL) was 20.0%.
For “CR011: fully human monoclonal antibody that specifically binds to GPNMB; VH SEQ ID NO: 20, VL SEQ ID NO: 29”, the “cell death in GPNMB negative TK10 cells” value (TK10) was “less than 24%”, the “effect on growth of all the melanoma cell lines tested (in words)” value (Melanoma cell lines) was “no effect on growth” and the “tumor growth inhibition by components of the immunoconjugate (in words)” value ([3]; doses identical to that contained in the intact immunoconjugate (5 mg/kg q4d×4)) was “lack of responses; also recorded: lack of tumor growth inhibition”. For the same substance, the “% G1” value (TK-10 control cells; TK-10, 24 hour, 1000 ng/mL) was 42.0%, the “% G2/M” value (TK-10 control cells; TK-10, 24 hour, 1000 ng/mL) was 6.3% and the “% S-phase” value (TK-10 control cells; TK-10, 24 hour, 1000 ng/mL) was 39.8%. The “% Sub-G1” value (TK-10 control cells; TK-10, 24 hour, 1000 ng/mL) was 0.3%, the “% G1” value (SK-Mel-2 cells; SK-Mel-2, 24 hour, 1000 ng/mL) was 63.6% and the “% G2/M” value (SK-Mel-2 cells; SK-Mel-2, 24 hour, 1000 ng/mL) was 6.4%. The “% S-phase” value (SK-Mel-2 cells; SK-Mel-2, 24 hour, 1000 ng/mL) was 25.2% and the “% Sub-G1” value (SK-Mel-2 cells; SK-Mel-2, 24 hour, 1000 ng/mL) was 0.5%.
